Source: US12570606B2, “Myeloperoxidase imaging agents” (The General Hospital Corporation, priority 2016, dated 2026)

What was measured:
[1] = Blood brain barrier assay, PET brain uptake; type: in vivo, Female C57Bl/6J mice
Procedure: Female C57Bl/6J mice were injected intravenously with either 3′-deoxy-3′-^18F-fluorothymidine (FLT) or Compound 9 (300-600 μCi). The mice were imaged 2 hours after the PET tracers were injected.

[2] = Stability of Compound 9 formulated for injection at room temperature; type: physicochemical
Procedure: Radiolabeling chemistry was performed using automated synthesis of the following steps: (1) azeotropic drying of [^18F]-fluoride; (2) [^18F]-fluorination; (3) Boc deprotection; and (4) HPLC purification, followed by solid-phase formulation of the final product. The synthesis module was operated in the following sequences with numerical references to FIG. 1. Automated syntheses were performed on a Synthra (Hamburg, Germany) model RN Plus automated synthesizer module. Boc-deprotection was conducted with 0.4 mmol aqueous HCl at 95° C. added directly to the labeling reaction mixture without any prior purification. The two-step synthesis can be finished in approximately 80 min with the total radiochemical yield of 47% after decay correction. • 1. [^18F]-Fluoride, received from PETNET (Waltham, Mass.), was produced by the ^18O(p,n)^18F nuclear reaction and delivered to the reagent vial A (A) of the radiosynthesis module via syringe after mixing with tetrabutylammonium bicarbonate ([…], 75 mM in H2O, 250 μL) and acetonitrile (MeCN, 300 μL). • 2. Automated synthesis began with the addition the [^18F]-fluoride/TBAB mixture (A) and MeCN (B) to the reaction vessel 1 (RV1). • 3. […] The eluent was monitored by UV (λ=254 nm) and radiochemical detectors connected in series. • 8. […]

O=C(Cc1c[nH]c2ccc(O)cc12)NC(Cc1c[nH]c2ccc(O)cc12)C(=O)NCCOCCOCC[18F] (stereo not shown) [Compound 9]
Uptake in the brain (SUV, FIG. 12) ([1]; 300-600 μCi i.v., imaged 2 hours after injection): higher uptake in the brain compared to FLT | Crossing of the blood brain barrier ([1]; intact BBB): can cross intact BBB | Time stable on storage ([2]; 0.5% (w/v) aqueous sodium-ascorbate in saline): at least 4 h | Stability on storage ([2]; 1×PBS for injection): degraded over time
